Data reported in patent US11191795B2, “Herbal compositions and methods for treating herpes” (priority 2019, dated 2021).

System: cold sores
Type: in vivo, human

## Nc1nc2c(ncn2COCCO)c(=O)[nH]1 [acyclovir]
Example 3, person, history, oral and topical
  response of cold sores to treatment: unresponsiveness
human, in vivo, po
  side effects: dizziness
